In PubChem BioAssay (NCI):
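Compound exposure: 48 hours, 5 concentrations, 96-well plates. TGI is the concentration that stops growth completely.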

Legend:
Assay in all cases: growth of human tumour cells (NCI), 48 h
NCI-H226 lung = tested on: NCI-H226 lung
HCT-15 colon = tested on: HCT-15 colon
MOLT-4 leukemia = tested on: MOLT-4 leukemia
MCF7 breast = tested on: MCF7 breast
SF-539 CNS = tested on: SF-539 CNS
SR leukemia = tested on: SR leukemia
OVCAR-8 ovarian = tested on: OVCAR-8 ovarian
PC-3 prostate = tested on: PC-3 prostate
SK-MEL-28 melanoma = tested on: SK-MEL-28 melanoma
KM12 colon = tested on: KM12 colon
UACC-257 melanoma = tested on: UACC-257 melanoma
NCI/ADR-RES ovarian = tested on: NCI/ADR-RES ovarian
TK-10 renal = tested on: TK-10 renal
OVCAR-3 ovarian = tested on: OVCAR-3 ovarian
SK-MEL-2 melanoma = tested on: SK-MEL-2 melanoma
HCC-2998 colon = tested on: HCC-2998 colon
BT-549 breast = tested on: BT-549 breast
HOP-62 NSCLC = tested on: HOP-62 NSCLC
M14 melanoma = tested on: M14 melanoma
HOP-92 NSCLC = tested on: HOP-92 NSCLC
U251 CNS = tested on: U251 CNS
NCI-H460 lung = tested on: NCI-H460 lung
CAKI-1 renal = tested on: CAKI-1 renal
RXF 393 renal = tested on: RXF 393 renal
HCT-116 colon = tested on: HCT-116 colon
ACHN renal = tested on: ACHN renal
COLO 205 colon = tested on: COLO 205 colon
RPMI-8226 leukemia = tested on: RPMI-8226 leukemia
MDA-MB-435 = tested on: MDA-MB-435
SNB-75 CNS = tested on: SNB-75 CNS
K-562 leukemia = tested on: K-562 leukemia
UO-31 renal = tested on: UO-31 renal
SN12C renal = tested on: SN12C renal
SW-620 colon = tested on: SW-620 colon
SNB-19 CNS = tested on: SNB-19 CNS
SF-295 CNS = tested on: SF-295 CNS
T-47D breast = tested on: T-47D breast
NCI-H23 lung = tested on: NCI-H23 lung
A498 renal = tested on: A498 renal
DU-145 prostate = tested on: DU-145 prostate
HT29 colon = tested on: HT29 colon
SF-268 CNS = tested on: SF-268 CNS
EKVX NSCLC = tested on: EKVX NSCLC
OVCAR-4 ovarian = tested on: OVCAR-4 ovarian
786-0 renal = tested on: 786-0 renal
SK-OV-3 ovarian = tested on: SK-OV-3 ovarian
A549 NSCLC = tested on: A549 NSCLC
IGROV1 ovarian = tested on: IGROV1 ovarian
UACC-62 melanoma = tested on: UACC-62 melanoma
MDA-MB-231 breast = tested on: MDA-MB-231 breast
OVCAR-5 ovarian = tested on: OVCAR-5 ovarian
MDA-N = tested on: MDA-N
NCI-H522 lung = tested on: NCI-H522 lung
LOX IMVI melanoma = tested on: LOX IMVI melanoma
CCRF-CEM leukemia = tested on: CCRF-CEM leukemia
SK-MEL-5 melanoma = tested on: SK-MEL-5 melanoma
MALME-3M melanoma = tested on: MALME-3M melanoma
HL-60(TB) leukemia = tested on: HL-60(TB) leukemia

COc1ccc(/C=C2/SC(c3ccccc3)N(NC(=O)CCCCCCCCC(=O)NN3C(=O)/C(=C\c4ccc(OC)c(OC)c4)SC3c3ccccc3)C2=O)cc1OC (stereo not given)
TGI (NCI-H226 lung): > 100 µM | TGI (HCT-15 colon): > 100 µM | TGI (MOLT-4 leukemia): 60.5 µM | TGI (MCF7 breast): > 100 µM | TGI (SF-539 CNS): 79.1 µM | TGI (SR leukemia): 98.3 µM | TGI (OVCAR-8 ovarian): > 100 µM | TGI (PC-3 prostate): > 100 µM | TGI (SK-MEL-28 melanoma): > 100 µM | TGI (KM12 colon): > 100 µM | TGI (UACC-257 melanoma): > 100 µM | TGI (NCI/ADR-RES ovarian): > 100 µM | TGI (TK-10 renal): > 100 µM | TGI (OVCAR-3 ovarian): > 100 µM | TGI (SK-MEL-2 melanoma): > 100 µM | TGI (HCC-2998 colon): > 100 µM | TGI (BT-549 breast): > 100 µM | TGI (HOP-62 NSCLC): > 100 µM | TGI (M14 melanoma): > 100 µM | TGI (HOP-92 NSCLC): 66.3 µM | TGI (U251 CNS): > 100 µM | TGI (NCI-H460 lung): > 100 µM | TGI (CAKI-1 renal): > 100 µM | TGI (RXF 393 renal): > 100 µM | TGI (HCT-116 colon): > 100 µM | TGI (ACHN renal): 71.8 µM | TGI (COLO 205 colon): > 100 µM | TGI (RPMI-8226 leukemia): 72.6 µM | TGI (MDA-MB-435): > 100 µM | TGI (SNB-75 CNS): > 100 µM | TGI (K-562 leukemia): 62 µM | TGI (UO-31 renal): > 100 µM | TGI (SN12C renal): > 100 µM | TGI (SW-620 colon): > 100 µM | TGI (SNB-19 CNS): > 100 µM | TGI (SF-295 CNS): 72.9 µM | TGI (T-47D breast): > 100 µM | TGI (NCI-H23 lung): > 100 µM | TGI (A498 renal): > 100 µM | TGI (DU-145 prostate): > 100 µM | TGI (HT29 colon): > 100 µM | TGI (SF-268 CNS): > 100 µM | TGI (EKVX NSCLC): 94.8 µM | TGI (OVCAR-4 ovarian): > 100 µM | TGI (786-0 renal): 91.3 µM | TGI (SK-OV-3 ovarian): > 100 µM | TGI (A549 NSCLC): > 100 µM | TGI (IGROV1 ovarian): 61.7 µM | TGI (UACC-62 melanoma): 98.7 µM | TGI (MDA-MB-231 breast): > 100 µM | TGI (OVCAR-5 ovarian): > 100 µM | TGI (MDA-N): 76.2 µM

CCOC(=O)c1sc2nc(SC)nc(Nc3ccc4c(c3)OCO4)c2c1N
TGI (NCI-H226 lung): > 100 µM | TGI (HCT-15 colon): > 100 µM | TGI (MOLT-4 leukemia): > 100 µM | TGI (MCF7 breast): > 100 µM | TGI (SF-539 CNS): > 100 µM | TGI (SR leukemia): > 100 µM | TGI (NCI-H522 lung): > 100 µM | TGI (PC-3 prostate): > 100 µM | TGI (SK-MEL-28 melanoma): 63.1 µM | TGI (KM12 colon): > 100 µM | TGI (UACC-257 melanoma): > 100 µM | TGI (NCI/ADR-RES ovarian): > 100 µM | TGI (TK-10 renal): > 100 µM | TGI (OVCAR-3 ovarian): > 100 µM | TGI (SK-MEL-2 melanoma): > 100 µM | TGI (HCC-2998 colon): > 100 µM | TGI (BT-549 breast): > 100 µM | TGI (HOP-62 NSCLC): > 100 µM | TGI (M14 melanoma): > 100 µM | TGI (HOP-92 NSCLC): 71.6 µM | TGI (U251 CNS): > 100 µM | TGI (NCI-H460 lung): > 100 µM | TGI (CAKI-1 renal): > 100 µM | TGI (RXF 393 renal): 31 µM | TGI (HCT-116 colon): > 100 µM | TGI (LOX IMVI melanoma): > 100 µM | TGI (ACHN renal): 69.4 µM | TGI (COLO 205 colon): > 100 µM | TGI (RPMI-8226 leukemia): > 100 µM | TGI (MDA-MB-435): > 100 µM | TGI (K-562 leukemia): > 100 µM | TGI (UO-31 renal): > 100 µM | TGI (CCRF-CEM leukemia): > 100 µM | TGI (SN12C renal): > 100 µM | TGI (SW-620 colon): > 100 µM | TGI (SNB-19 CNS): > 100 µM | TGI (SF-295 CNS): 84.8 µM | TGI (T-47D breast): > 100 µM | TGI (NCI-H23 lung): > 100 µM | TGI (A498 renal): 96.9 µM | TGI (DU-145 prostate): > 100 µM | TGI (EKVX NSCLC): 77.5 µM | TGI (OVCAR-4 ovarian): > 100 µM | TGI (786-0 renal): > 100 µM | TGI (SK-MEL-5 melanoma): > 100 µM | TGI (MALME-3M melanoma): 97.6 µM | TGI (A549 NSCLC): > 100 µM | TGI (IGROV1 ovarian): > 100 µM | TGI (HL-60(TB) leukemia): > 100 µM | TGI (UACC-62 melanoma): > 100 µM | TGI (MDA-MB-231 breast): > 100 µM | TGI (OVCAR-5 ovarian): > 100 µM | TGI (MDA-N): > 100 µM
